Measurements reported in PubChem BioAssay (NCI).
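1) Cells in 96-well plates. 2) Compound, 48 h, 5 concentrations. 3) Linear interpolation between surrounding doses. 4) Unreached endpoint = highest concentration. Abbreviation: GI50, concentration required for 50% inhibition of growth. TGI marks complete inhibition of growth.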

Columns and labels:
Experiment in all cases: inhibition of tumour cell growth, NCI panel, 48 h
HCC-2998 colon = test system: HCC-2998 colon
IGROV1 ovarian = test system: IGROV1 ovarian
NCI-H23 lung = test system: NCI-H23 lung
NCI-H460 lung = test system: NCI-H460 lung
OVCAR-3 ovarian = test system: OVCAR-3 ovarian
SF-295 CNS = test system: SF-295 CNS
UACC-62 melanoma = test system: UACC-62 melanoma
CCRF-CEM leukemia = test system: CCRF-CEM leukemia
MOLT-4 leukemia = test system: MOLT-4 leukemia
HS 578T breast = test system: HS 578T breast

Compound | TGI (HCC-2998 colon) [µM] | TGI (IGROV1 ovarian) [µM] | TGI (NCI-H23 lung) [µM] | TGI (NCI-H460 lung) [µM] | TGI (OVCAR-3 ovarian) [µM] | TGI (SF-295 CNS) [µM] | TGI (UACC-62 melanoma) [µM] | TGI (CCRF-CEM leukemia) [µM] | TGI (MOLT-4 leukemia) [µM] | TGI (HS 578T breast) [µM] | GI50 (HCC-2998 colon) [µM] | GI50 (HS 578T breast) [µM] | GI50 (IGROV1 ovarian) [µM] | GI50 (NCI-H23 lung) [µM] | GI50 (NCI-H460 lung) [µM] | GI50 (OVCAR-3 ovarian) [µM] | GI50 (SF-295 CNS) [µM] | GI50 (UACC-62 melanoma) [µM] | GI50 (MOLT-4 leukemia) [µM]
CCOC(=O)C(=O)Nc1c(C)cccc1C | > 100 | > 100 | > 100 | > 100 | > 100 | > 100 | > 100 | – | – | – | – | – | – | – | – | – | – | – | –
CCOC(=O)NN1C(=O)C(=P(c2ccccc2)(c2ccccc2)c2ccccc2)C(C(=O)OCC)=C1C | > 100 | > 100 | > 100 | > 100 | > 100 | > 100 | > 100 | > 100 | > 100 | – | – | – | – | – | – | – | – | – | –
CC12CCC(=O)C=C1CCC1C2C(O)CC2(C)C(c3csc(N)n3)CCC12 (configuration not stated) | > 100 | > 100 | > 100 | – | > 100 | > 100 | > 100 | – | > 100 | > 100 | – | – | – | – | – | – | – | – | –
CC(=O)OCC1OC(n2ccc(=O)[nH]c2=O)C(OC(C)=O)C1OC(C)=O (configuration not stated) | > 100 | > 100 | > 100 | > 100 | > 100 | > 100 | > 100 | – | – | > 100 | > 100 | > 100 | > 100 | > 100 | > 100 | > 100 | > 100 | > 100 | –
CN(C)CCCN1CCc2c([nH]c3ccccc23)C1c1cccnc1 (configuration not stated) | > 100 | > 100 | > 100 | > 100 | > 100 | > 100 | > 100 | > 100 | > 100 | – | – | – | – | – | – | – | – | – | –
COc1cc(CNc2ccc(C(C)C)cc2)cc(OC)c1OC | – | 70 | 45.5 | 26.5 | 33.4 | – | 33 | 50.5 | 73 | – | – | – | – | – | – | 16.3 | – | – | –
Nc1nc2c(c(=O)[nH]1)CN(c1ccc(S(N)(=O)=O)cc1)CN2 | – | > 100 | – | > 100 | > 100 | > 100 | > 100 | – | > 100 | > 100 | – | – | – | – | – | – | – | – | –
O=C(CN1CCN(c2ccccc2)CC1)N1CCc2c([nH]c3ccccc23)C1c1cccnc1 (configuration not stated) | > 100 | > 100 | > 85.3 | > 100 | > 100 | 84.8 | > 100 | > 100 | > 100 | – | – | – | – | – | – | – | – | – | –
O=C(O)c1cc(=O)c2[nH]c3ccccc3c2s1 | > 100 | > 100 | > 100 | > 100 | > 100 | > 100 | > 100 | > 100 | > 100 | – | – | – | – | – | – | – | – | – | –
COc1ccc(NC(=O)c2cc(OC)c(OC)c(OC)c2)cc1 | > 100 | > 100 | > 91.9 | > 100 | > 100 | > 100 | > 100 | > 100 | > 100 | – | – | – | – | – | – | – | – | – | –
Cc1cccc(C(C)C)c1NC(=O)C(=O)CC(=O)c1c(C)n([O-])c2ccccc2[n+]1=O | > 100 | > 100 | 51.3 | 60 | 22 | > 100 | 42.4 | 99.7 | 59.8 | – | – | – | – | – | – | – | – | – | –
CC(=O)OC1c2ccccc2CCCCCCC12OCCO2 (configuration not stated) | > 100 | > 100 | > 100 | > 100 | > 100 | > 100 | > 100 | > 100 | > 100 | – | – | – | – | – | – | – | – | – | –
NNC(=O)CCC(=O)NC1C2CC3CC(C2)CC1C3 (configuration not stated) | > 100 | > 100 | > 100 | > 100 | – | > 100 | > 100 | > 100 | > 100 | – | – | – | – | – | – | – | – | – | –
COc1ccc(C2S/C(=C\c3ccc(O)cc3)C(=O)N2NC(=O)Cc2ccccc2)cc1 (configuration not stated) | – | > 100 | > 100 | > 100 | – | > 100 | > 100 | > 100 | > 100 | – | – | – | – | – | – | – | – | – | –
COc1ccc(C(C#N)NNc2nc(C)cc(=O)[nH]2)cc1OC (configuration not stated) | – | > 100 | > 100 | > 100 | > 100 | > 100 | > 100 | > 100 | > 100 | – | – | – | – | – | – | – | – | – | –
COc1cc([C@@H]2c3cc4c(cc3[C@@H](NC(=O)c3ccccc3)C3COC(=O)[C@@H]32)OCO4)cc(OC)c1O (some centres not stated) | 35.4 | 25.7 | 10.7 | 15.2 | 56.7 | > 100 | 11.6 | > 100 | 9.18 | – | – | – | – | – | – | – | – | – | –
O=C1CC[C@@H](S(=O)(=O)c2ccccc2)[C@@H](/C=C/c2ccccc2)O1 | > 100 | > 100 | > 100 | > 100 | > 100 | > 100 | > 100 | > 100 | > 100 | – | – | – | – | – | – | – | – | – | –
CC/C=C\C/C=C\C/C=C\CCCCCCCC(=O)OCC | > 100 | > 100 | > 100 | – | > 100 | > 100 | > 100 | > 100 | > 100 | – | – | – | – | – | – | – | – | – | –
COc1ccc(O)c(C#N)c1C#N | > 100 | > 100 | > 100 | > 100 | > 100 | > 100 | > 100 | > 100 | > 100 | – | – | – | – | – | – | – | – | – | –
CN(CCOc1ccc(C#N)cc1)CCOc1ccc(C#N)cc1 | > 100 | 24.7 | > 100 | > 100 | > 100 | > 100 | > 100 | – | 68.7 | > 100 | > 100 | 13.8 | 1.66 | 22.6 | > 100 | 29.8 | 17.3 | > 100 | 15.1
CC(=O)c1cc([N+](=O)[O-])ccc1OCC(=O)O | > 100 | > 100 | > 100 | > 100 | > 100 | > 100 | > 100 | > 100 | > 100 | – | – | – | – | – | – | – | – | – | –
CC(=O)n1c2ccccc2c2nc3nc(Oc4ccc(C)cc4)c4ccccc4c3cc21 | > 100 | > 100 | 78.7 | > 100 | > 100 | > 100 | > 100 | > 100 | > 100 | – | – | – | – | – | – | – | – | – | –
CSc1nc2c(nc(N)n2C2OCC(O)C(O)C2O)c(=O)n1C (configuration not stated) | > 100 | > 100 | > 100 | > 100 | > 100 | > 100 | > 100 | > 100 | > 100 | – | – | – | – | – | – | – | – | – | –
